# In patent US20220273196A1, “INGESTIBLE DEVICE AND ASSOCIATED METHODS” (Biora Therapeutics, Inc., priority 2017, published 2022):
# “Also recorded” adds a separate entry of the source.
# How the values were obtained:
# [1] = Dissolving drug pills or powder in water for spectroscopy samples; format: physicochemical; conditions: pills or powder (Sigma A5000) in water, 0.1-10% (w/v) samples
# Description: Other test samples included anti-inflammatory drugs, e.g., Ibuprofen and Acetaminophen, dissolved in water. Yet other test samples included microcrystalline cellulose, which can be one primary filler material in anti-inflammatory drugs, dissolved in water. […] The Ibuprofen, Acetaminophen and microcrystalline cellulose samples held by the well plate 700B were used to perform spectroscopy of Ibuprofen, Acetaminophen and microcrystalline cellulose in reflectance mode using Benchtop spectrometers #5, #2 and #3. Further, the Ibuprofen and Acetaminophen samples were siphoned from the well plate 700B and combined into a few cuvettes. […] These Ibuprofen and Acetaminophen samples held by the cuvettes were used to perform spectroscopy of Ibuprofen and Acetaminophen in transmission mode using Benchtop spectrometers #4, #5, #2 and #3.
# Some test samples included solutions of Ibuprofen having various concentrations. Ibuprofen powder (Sigma 11892) was dissolved in water directly in cuvettes having an optical path thickness of 10 mm. These solutions had Ibuprofen concentrations varying in the range of 0.1-10% (w/v). Other test samples included solutions of Acetaminophen having various concentrations. Acetaminophen powder (Sigma A5000) was dissolved in water directly in cuvettes having an optical path thickness of 10 mm. […]
# cyclophilin = cyclophilin (Homo sapiens, UniProt P62937); conditions: cited from earlier work
# [2] = system: murine models of inflammatory bowel disease (IBD); conditions: numerous murine models; cited from earlier work
# Sequence of cyclophilin (P62937 whole entry): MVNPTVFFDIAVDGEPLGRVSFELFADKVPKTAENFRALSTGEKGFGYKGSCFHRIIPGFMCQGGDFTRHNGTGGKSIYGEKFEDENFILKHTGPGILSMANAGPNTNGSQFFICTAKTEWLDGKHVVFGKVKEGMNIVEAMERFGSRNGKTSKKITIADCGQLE
molecule,measurement,setting,value
CC(=O)Nc1ccc(O)cc1 [Acetaminophen],solubility in water,[1],limited solubility in water; also recorded: poor solubility
C=C/C=C/C[C@@H](C)[C@@H](O)[C@H]1C(=O)N[C@@H](CC)C(=O)N(C)CC(=O)N(C)[C@@H](CC(C)C)C(=O)N[C@@H](C(C)C)C(=O)N(C)[C@@H](CC(C)C)C(=O)N[C@@H](C)C(=O)N[C@H](C)C(=O)N(C)[C@@H](CC(C)C)C(=O)N(C)[C@@H](CC(C)C)C(=O)N(C)[C@@H](C(C)C)C(=O)N1C [voclosporin],binding affinity for cyclophilin relative to cyclosporine A,cyclophilin,comparable
"L-glutamic acid polymer with L-alanine, L-lysine and L-tyrosine, acetate (salt) [Glatiramer acetate]",effect on inflammation and pathological manifestations of IBD,[2],reduce inflammation and ameliorate the pathological manifestations
